Experimental data from patent US20230212180A1, “SUBSTITUTED PYRAZINE COMPOUND, PHARMACEUTICAL COMPOSITION COMPRISING SAME, AND USE THEREOF” (Sichuan Kelun-Biotech Biopharmaceutical Co., Ltd., priority 2020, published 2023).

Key:
[1] = target: T1, EGFR (ErbB1) T790M L858R (Homo sapiens, UniProt P00533, L858R/T790M); assay: Kinase selectivity test (ThermoFisher); type: biochemical
T1 construct: purchased ThermoFisher USA (contract testing)
Method: (§1) Test Example 11: Kinase Selectivity Test
(§2) 1. Experimental Purpose: Tests for selectivity of the compounds of the present disclosure for a plurality of kinases were carried out to assess the safety risk of the compounds of the present disclosure.
(§3) 2. Test institution: ThermoFisher USA
(§4) 3. Testing methods: LanthaScreen binding, Z′-LYTE, Adapta
(§5) 4. Test targets: 100 targets in total

[2] = Pharmacokinetic (PK) studies in SD rat; type: in vivo
Method: Test Example 6: Pharmacokinetic (PK) Studies in SD Rat
The compound of Example 12 and Control Compound 2 were administered to male SD rats by intravenous injection (IV) and gavage (PO) respectively to estimate the pharmacokinetic properties. Dosing amounts for IV and PO routes were 1 mg/kg and 5 mg/kg, respectively. The solvent for IV route was 5% DMSO+5% Solutol (polyoxyl 15-hydroxystearate)+90% Saline (physiological saline), and the solvent for PO route was 0.5% MC (sodium methylcellulose). Blood was collected at various time points after IV and PO administration. The blood was anticoagulated using EDTA.K2, and centrifuged to obtain plasma samples. The plasma samples were preserved at −80° C.
The plasma samples were subjected to protein precipitation and then to the LC-MS/MS analysis. WinNonlin 6.3 software was used to calculate the pharmacokinetic parameters by non-compartmental model, and the results were listed in Table 6 below.

[3] = test system: NCI-H358 cell xenograft; assay: Tumor inhibition in NCI-H358 xenograft model; type: in vivo, Balb/c-nu mice; conditions: for TGI (%) (calculated by the tumor volume): oral, 21 days
From the text: Test Example 10: Experiment on Tumor Inhibition in NCI-H358 Xenograft Model
A subcutaneous xenograft mouse model was established by subcutaneously inoculating human non-small cell lung cancer cells NCI-H358 into the right scapulae of Balb/c-nu mice. After tumor formation, the mice were orally administered to evaluate the in vivo drug efficacy of different test compounds.
The NCI-H358 cells were subjected to monolayer in vitro culture. The culture conditions were as follows: 10% fetal bovine serum was added into the RPMI 1640 medium, and the cells were cultured in an incubator at 37° C. in air containing 5% CO2. The cells were digested twice/trice a week with pancreatin-EDTA for passaging. When the cells were in exponential growth phase, the cells were harvested, counted, and inoculated.
Before inoculated with tumor cells, the experimental mice were identified sequentially with numbered ear spikes specific to mice.
Every of the mice were subcutaneously inoculated with 1×10^6 NCI-H358 cells (suspended in 0.1 ml PBS+Matrigel Matrix) into the right scapulae. It was predicted that the mean tumor volume on Day 7 would be ˜200 mm^3. Based on the measurement results on Day 7, thirty mice with regular shapes and uniform volumes of tumor were screened, randomly divided into 5 groups and administered according to the experimental scheme (the dosing regimen was as shown in Table 10 (lasting for 21 days)). The vehicle was 5% DMSO+5% Solutol+90% H2O.
Mice were weighed and tumor volumes were measured trice a week, and the data were recorded. The tumor volume (V) was calculated by the following equation: V=½×a×b^2, wherein a and b indicated the length and width, respectively.
The anti-tumor efficacy was evaluated by tumor growth inhibition TGI (%). […] When the tumor regressed, TGI (%) (tumor volume)=100%−(TVt−TV0)/TV0×100%.
If the tumor was smaller than its initial volume, i.e., Vt<V0, it was defined as partial regression (PR) of the tumor. If the tumor disappeared completely, it was defined as complete regression (CR) of the tumor.

[4] = test system: 100 kinase targets; assay: Kinase selectivity test, whole panel (ThermoFisher); type: biochemical
Method: as §1, §2, §3, §4, §5

[5] = rat, in vivo, male SD rats, IV, 1 mg/kg, plasma
[6] = rat, in vivo, male SD rats, PO, 5 mg/kg, plasma

T1 sequence (P00533 25-1210 T790M/L858R): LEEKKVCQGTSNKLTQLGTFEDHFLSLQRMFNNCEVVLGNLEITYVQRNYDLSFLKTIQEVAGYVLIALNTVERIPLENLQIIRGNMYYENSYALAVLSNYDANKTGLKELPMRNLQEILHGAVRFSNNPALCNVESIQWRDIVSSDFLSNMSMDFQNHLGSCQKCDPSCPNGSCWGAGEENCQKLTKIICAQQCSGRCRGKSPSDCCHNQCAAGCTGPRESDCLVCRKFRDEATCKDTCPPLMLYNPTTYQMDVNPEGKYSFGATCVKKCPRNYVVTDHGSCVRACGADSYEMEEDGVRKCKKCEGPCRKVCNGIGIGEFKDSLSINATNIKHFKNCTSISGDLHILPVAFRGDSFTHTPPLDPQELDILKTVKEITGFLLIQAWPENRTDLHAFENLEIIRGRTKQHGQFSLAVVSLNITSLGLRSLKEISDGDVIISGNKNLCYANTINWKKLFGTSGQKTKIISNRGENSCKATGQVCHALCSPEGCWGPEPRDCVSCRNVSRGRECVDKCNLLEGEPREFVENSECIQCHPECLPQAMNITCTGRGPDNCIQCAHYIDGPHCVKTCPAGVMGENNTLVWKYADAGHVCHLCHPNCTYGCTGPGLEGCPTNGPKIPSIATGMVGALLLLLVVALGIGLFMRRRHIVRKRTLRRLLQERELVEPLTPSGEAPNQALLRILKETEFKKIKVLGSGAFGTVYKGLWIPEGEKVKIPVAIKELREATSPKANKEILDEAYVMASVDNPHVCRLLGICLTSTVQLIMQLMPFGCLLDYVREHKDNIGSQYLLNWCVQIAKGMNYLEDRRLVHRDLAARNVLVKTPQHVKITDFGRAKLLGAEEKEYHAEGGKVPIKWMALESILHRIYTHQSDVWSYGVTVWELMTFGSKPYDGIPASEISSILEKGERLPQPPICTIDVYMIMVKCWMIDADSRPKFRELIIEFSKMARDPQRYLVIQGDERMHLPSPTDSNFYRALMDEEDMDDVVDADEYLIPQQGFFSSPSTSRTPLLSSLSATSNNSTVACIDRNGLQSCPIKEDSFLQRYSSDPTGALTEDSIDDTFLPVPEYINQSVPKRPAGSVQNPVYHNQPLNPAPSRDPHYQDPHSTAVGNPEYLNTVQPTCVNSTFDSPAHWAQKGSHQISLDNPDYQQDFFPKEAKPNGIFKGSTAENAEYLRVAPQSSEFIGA

| Structure (SMILES) | Inhibition (%) Target 1 [1] | Inhibition (%) Target 2 [1] | Inhibition (%) Mean value [1] | pharmacokinetic properties (in words) ([2]; SD rat, 1 mg/kg by injection and 5 mg/kg by mouth) | AUC(0-t) [2, 5] | Cmax [2, 5] | clearance [2, 5] | AUC(0-t) [2, 6] | Cmax [2, 6] | TGI (%) (calculated by the tumor volume) ([3]; 3 mpk/QD) | TGI (%) (calculated by the tumor volume) ([3]; 10 mpk/QD) | tumor inhibitory effect (in words) ([3]; oral administration for 21 consecutive days) | inhibitory effect on all of the 100 kinase targets ([4]; all 100 kinase targets) | TGI (%) (calculated by the tumor volume) ([3]; 5 mpk/BID) | inhibitory effect on the remaining 86 targets ([4]; 86 of the 100 kinase targets) | inhibitory effect on the above 14 kinase targets ([4]; the 14 kinases of the table) |
| --- | --- | --- | --- | --- | --- | --- | --- | --- | --- | --- | --- | --- | --- | --- | --- | --- |
| C[C@@H]1OCC2(CCN(c3ncc(Sc4ccnc(N5CC(C(C)(C)O)C5)c4Cl)nc3CO)CC2)[C@@H]1N [Example 12, 2-(1-(4-(5-((3S,4S)-4-amino-3-methyl-2-oxa-8-azaspiro[4.5]decan-8-yl)-6-(hydroxymethyl)pyrazin-2-ylthio)-3-chloropyridin-2-yl)azetidin-3-yl)propan-2-ol] | 0% | 5% | 2% | excellent pharmacokinetic properties | 1690 ng·h/mL | 373 ng/mL | 9.8 mL/min/kg | 9680 ng·h/mL | 1110 ng/mL | 84.35% | 93.14% | remarkable tumor inhibitory effect | weak inhibitory effect | – | – | – |
| C[C@@H]1OCC2(CCN(c3cnc(Sc4ccnc(N)c4Cl)c(N)n3)CC2)[C@@H]1N [TNO-155, reference compound] | 81% | 77% | 79% | – | – | – | – | – | – | – | 58.49% | – | – | 68.59% | weak inhibitory effect | strong inhibitory effect |
